Here are results for 2 compounds from ChEMBL document CHEMBL1201862, “PubChem BioAssay data set” (2004).

The source made the active and inactive calls.

The target of assay [1] is T1, Protein RecA (Mycobacterium tuberculosis, UniProt P9WHJ3).
T1 sequence (P9WHJ3 whole entry): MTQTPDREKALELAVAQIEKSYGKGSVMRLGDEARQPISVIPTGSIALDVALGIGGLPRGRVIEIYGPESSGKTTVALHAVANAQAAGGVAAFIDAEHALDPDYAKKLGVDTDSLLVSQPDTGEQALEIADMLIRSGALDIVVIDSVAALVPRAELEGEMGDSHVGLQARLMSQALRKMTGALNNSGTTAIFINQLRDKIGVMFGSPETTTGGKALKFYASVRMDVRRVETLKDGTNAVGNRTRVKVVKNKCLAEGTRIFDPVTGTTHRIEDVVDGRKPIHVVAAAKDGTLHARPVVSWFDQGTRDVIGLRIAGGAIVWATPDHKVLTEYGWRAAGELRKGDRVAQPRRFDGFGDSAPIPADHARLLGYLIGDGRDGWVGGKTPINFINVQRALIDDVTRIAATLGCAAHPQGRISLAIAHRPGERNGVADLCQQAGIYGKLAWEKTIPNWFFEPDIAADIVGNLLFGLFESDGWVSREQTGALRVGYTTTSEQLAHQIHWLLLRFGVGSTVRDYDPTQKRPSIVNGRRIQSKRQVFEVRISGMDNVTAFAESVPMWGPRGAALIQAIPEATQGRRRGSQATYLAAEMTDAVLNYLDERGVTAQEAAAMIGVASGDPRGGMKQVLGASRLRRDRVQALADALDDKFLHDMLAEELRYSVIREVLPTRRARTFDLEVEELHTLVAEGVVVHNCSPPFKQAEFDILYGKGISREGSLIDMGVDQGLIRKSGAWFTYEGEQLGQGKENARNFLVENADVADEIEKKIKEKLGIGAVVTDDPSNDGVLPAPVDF
The assay can be described thus: Fluorescence Cell-Free Homogeneous Dose Retest to Identify Inhibitors of RecA-Intein Splicing Activity. [Related pubchem assays (depositor defined):AID2097, AID2223, AID489010, AID492950]. Type of assay: functional.

Assay [2] addresses T2, Tyrosyl-DNA phosphodiesterase 2 (Homo sapiens, UniProt O95551).
T2 sequence (O95551 whole entry): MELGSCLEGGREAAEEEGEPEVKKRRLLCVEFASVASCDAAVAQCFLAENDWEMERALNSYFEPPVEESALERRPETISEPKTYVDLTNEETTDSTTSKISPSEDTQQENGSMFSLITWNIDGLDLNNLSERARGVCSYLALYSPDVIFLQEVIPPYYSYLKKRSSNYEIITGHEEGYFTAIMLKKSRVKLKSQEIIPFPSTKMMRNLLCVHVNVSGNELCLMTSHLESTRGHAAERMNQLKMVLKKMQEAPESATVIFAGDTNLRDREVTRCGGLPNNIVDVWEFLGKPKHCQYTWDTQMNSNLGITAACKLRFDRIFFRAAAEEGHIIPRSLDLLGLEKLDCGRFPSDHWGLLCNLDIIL
Put plainly: potency against TDP2 phosphodiesterase activity – biochemical, epi absorbance, IC50, dose response (AID 743297).

The target of assay [3] is T3, Zinc finger protein mex-5 (Caenorhabditis elegans, UniProt Q9XUB2).
T3 sequence (Q9XUB2 whole entry): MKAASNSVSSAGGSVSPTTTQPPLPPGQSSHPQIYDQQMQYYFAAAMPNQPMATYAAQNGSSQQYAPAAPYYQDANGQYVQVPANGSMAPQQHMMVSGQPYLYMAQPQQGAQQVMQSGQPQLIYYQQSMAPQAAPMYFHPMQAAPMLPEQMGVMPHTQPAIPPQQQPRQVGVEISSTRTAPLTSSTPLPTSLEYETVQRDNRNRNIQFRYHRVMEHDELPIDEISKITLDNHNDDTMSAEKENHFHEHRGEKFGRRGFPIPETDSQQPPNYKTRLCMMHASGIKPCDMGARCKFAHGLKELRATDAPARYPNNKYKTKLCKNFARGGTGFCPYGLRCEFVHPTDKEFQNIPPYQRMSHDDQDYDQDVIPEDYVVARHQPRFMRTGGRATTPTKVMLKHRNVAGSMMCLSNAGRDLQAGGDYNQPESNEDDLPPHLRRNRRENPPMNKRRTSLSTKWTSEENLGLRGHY
The assay can be described thus: potency of MEX-5 RNA-binding blockers – biochemical, C. elegans, fluorescence polarization, dose response (AID 1960). A general note: In fluorescence polarisation assays a small probe gives low polarisation when free and higher when bound to something large.

The target of assay [4] is Bifunctional protein GlmU (Mycobacterium tuberculosis, UniProt P9WMN3). The assay can be described thus: Inhibitors of Mycobacterial Glucosamine-1-phosphate acetyl transferase (GlmU). Secondary screen. More on the design: species or system Mycobacterium tuberculosis H37Rv.
Bifunctional protein GlmU, sequence (P9WMN3 whole entry): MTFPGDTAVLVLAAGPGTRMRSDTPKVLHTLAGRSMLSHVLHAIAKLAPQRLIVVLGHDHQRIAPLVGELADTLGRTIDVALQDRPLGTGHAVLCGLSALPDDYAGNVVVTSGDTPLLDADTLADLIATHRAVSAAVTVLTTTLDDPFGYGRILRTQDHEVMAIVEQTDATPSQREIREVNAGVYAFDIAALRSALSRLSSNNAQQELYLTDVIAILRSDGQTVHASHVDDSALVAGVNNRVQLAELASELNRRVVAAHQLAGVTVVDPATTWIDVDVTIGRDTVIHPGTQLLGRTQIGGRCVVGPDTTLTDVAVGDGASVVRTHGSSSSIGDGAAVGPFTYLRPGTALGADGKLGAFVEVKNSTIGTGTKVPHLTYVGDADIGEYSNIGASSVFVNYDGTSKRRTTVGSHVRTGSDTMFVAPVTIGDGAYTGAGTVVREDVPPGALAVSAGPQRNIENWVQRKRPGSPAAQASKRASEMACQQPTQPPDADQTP
The target of assay [5] is Induced myeloid leukemia cell differentiation protein Mcl-1 (Homo sapiens, UniProt Q07820). In kind it is functional.
Induced myeloid leukemia cell differentiation protein Mcl-1, sequence (Q07820 whole entry): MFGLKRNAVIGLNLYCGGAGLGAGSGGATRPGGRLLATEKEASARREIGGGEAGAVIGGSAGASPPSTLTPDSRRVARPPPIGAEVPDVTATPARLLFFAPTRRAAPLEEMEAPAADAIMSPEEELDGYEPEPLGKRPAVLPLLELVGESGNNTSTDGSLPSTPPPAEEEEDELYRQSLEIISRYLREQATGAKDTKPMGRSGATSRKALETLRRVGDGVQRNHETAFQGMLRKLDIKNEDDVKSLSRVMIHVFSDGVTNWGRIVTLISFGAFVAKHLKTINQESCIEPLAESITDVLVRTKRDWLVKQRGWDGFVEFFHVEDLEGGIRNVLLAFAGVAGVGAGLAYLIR
Assay [6] addresses Nonstructural protein 1 (Influenza A virus, UniProt Q194T2). In kind it is functional, Influenza A virus (A/California/07/2009(H1N1)).
In assay [7] the target is T4, Endoribonuclease toxin MazF (Escherichia coli K-12, UniProt P0AE70).
T4 sequence (P0AE70 whole entry): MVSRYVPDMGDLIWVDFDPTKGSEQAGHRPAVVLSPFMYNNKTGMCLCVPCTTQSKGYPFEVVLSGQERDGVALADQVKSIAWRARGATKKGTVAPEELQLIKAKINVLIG
Put plainly: activation of MazEF endoribonuclease cleavage – biochemical, fluorescence, single-stranded RNA substrate, uHTS hits, dose response (AID 588481). In kind it is functional.

Nonstructural protein 1, sequence (Q194T2 whole entry): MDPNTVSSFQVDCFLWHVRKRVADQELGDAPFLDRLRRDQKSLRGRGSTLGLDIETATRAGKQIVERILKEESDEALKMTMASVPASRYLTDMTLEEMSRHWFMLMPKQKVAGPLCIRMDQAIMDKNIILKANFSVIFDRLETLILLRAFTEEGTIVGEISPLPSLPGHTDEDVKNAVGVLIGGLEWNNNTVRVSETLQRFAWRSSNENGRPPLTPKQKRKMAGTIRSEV

`COC(=O)c1ccc(-c2ccc(C(c3c(C)[nH][nH]c3=O)c3c(C)[nH][nH]c3=O)o2)cc1`: the EC50 (in general, the concentration needed to bring the measured effect to its halfway point) in assay [1] was 0.348 µM (active). Further, in assay [2], the IC50 (in general, the midpoint of a concentration-inhibition curve) was 74.3 µM (inactive).
Consider `Oc1ccc(/C=N/NC(=S)Nc2cccnc2)c(O)c1O`, for which the EC50 in assay [3] is 0.086 µM (active); in assay [7] it was > 99 µM (inactive). The IC50 is 83 µM (active) in assay [4], 19.5 µM (active) in assay [5] and 3.58 µM (active) in assay [6].
